Our source for the IC50 values is BindingDB's records for patent US11161864 (Venenum Biodesign, 2021).

The target of this experiment is T1, Stimulator of interferon genes protein [154-378] (Mus musculus, UniProt Q3TBT3).
T1 construct: 154-378
T1 sequence (Q3TBT3 whole entry): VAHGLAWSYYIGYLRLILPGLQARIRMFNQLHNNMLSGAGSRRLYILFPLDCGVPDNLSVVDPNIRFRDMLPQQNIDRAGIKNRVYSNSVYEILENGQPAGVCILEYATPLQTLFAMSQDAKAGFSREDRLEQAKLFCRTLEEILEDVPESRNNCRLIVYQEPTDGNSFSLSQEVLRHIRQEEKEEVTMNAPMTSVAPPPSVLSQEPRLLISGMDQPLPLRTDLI
Nature of the experiment: Binding Assay.

Consider `NC(=O)c1cnc2c(c1)nc1n2CCOP(=O)(S)OC[C@H]2O[C@@H](n3cnc4c(=O)[nH]c(N)nc43)[C@H](OP(=O)(S)OC1)[C@@H]2F` (stereo partly specified) [US11161864, Example 37A], for which the IC50 (in general, the point on the concentration scale where inhibition reaches its midpoint) was below 1 µM.
